According to US20230167127A1, “COMPOUNDS AND THEIR USE IN THE TREATMENT OF BACTERIAL INFECTION” (Hoffmann-La Roche Inc., priority 2020, published 2023):
Read-outs that look alike come from different tables or passages of the source.

Test system: Escherichia coli ATCC 25922
Assay: 50% growth inhibitory concentration (IC50) determination, Iso-Sensitest broth dilution
Type: cell-based
Conditions: strain Escherichia coli ATCC 25922, 10-point broth dilution, optical density at 600 nm over 16 h, read-out: Escherichia coli growth inhibition IC50
How it was run: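 10-point twofold Iso-Sensitest broth dilution (e.g. 50 to 0.097 μM final) with DMSO stocks, incubated at 35±2° C. Growth followed by OD 600 nm every 20 min over 16 h; IC50 derived from growth inhibition during logarithmic phase.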

[1] = Escherichia coli, ATCC25922, 16 h

Row | Compound | IC50 [1] | IC50
1 | Cc1nc(Cl)nc2c1CC(CNCCC1CN(c3ccc4c(n3)NC(=O)CO4)C(=O)O1)C2 (centres unmarked) [Example 385, 6-[5-[2-[(2-chloro-4-methyl-6,7-dihydro-5H-cyclopenta[d]pyrimidin-6-yl)methylamino]ethyl]-2-oxo-1,3-oxazolidin-3-yl]-4H-pyrido[3,2-b][1,4]oxazin-3-one] | 923 nM | –
2 | N#Cc1cccc2c1CC(CN[C@H]1C[C@]3(CN(c4ccc5c(n4)NC(=O)CO5)C(=O)O3)C1)C2 (stereo partly drawn) [Example 183, 2-[[[2,4-cis-6-oxo-7-(3-oxo-4H-pyrido[3,2-b][1,4]oxazin-6-yl)-5-oxa-7-azaspiro[3.4]octan-2-yl]amino]methyl]-2,3-dihydro-1H-indene-4-carbonitrile] | 153 nM | –
3 | 2-[[2-[2-oxo-3-(3-oxo-4H-pyrazino[2,3-b][1,4]oxazin-6-yl)-1,3-oxazolidin-5-yl]ethylamino]methyl]-6-(1H-triazol-5-ylmethoxy)-2,3-dihydro-1H-indene-4-carbonitrile [Example 426] | – | 156 nM
4 | Cc1ncc(C#N)c2c1CC(CNCCC1CN(c3ccc4c(n3)NC(=O)CO4)C(=O)O1)C2 (centres unmarked) [Example 47, 1-methyl-6-[[2-[2-oxo-3-(3-oxo-4H-pyrido[3,2-b][1,4]oxazin-6-yl)-1,3-oxazolidin-5-yl]ethylamino]methyl]-6,7-dihydro-5H-cyclopenta[c]pyridine-4-carbonitrile; formic acid] | < 97.7 nM | –
5 | N#Cc1cc(OCc2cnn[nH]2)cc2c1CC(CNCCC1CN(c3cnc4c(n3)NC(=O)CO4)C(=O)O1)C2 (centres unmarked) [Example 425, 2-[[2-[2-Oxo-3-(3-oxo-4H-pyrazino[2,3-b][1,4]oxazin-6-yl)-1,3-oxazolidin-5-yl]ethylamino]methyl]-6-(1N-triazol-5-ylmethoxy)-2,3-dihydro-1H-indene-4-carbonitrile] | 102 nM | –
6 | Cc1ncc(F)c2c1CC(CCN1CC3(C1)CN(c1cnc4c(n1)NC(=O)CO4)C(=O)O3)C2 (centres unmarked) [Example 326, 6-[2-[2-(4-fluoro-1-methyl-6,7-dihydro-5H-cyclopenta[c]pyridin-6-yl)ethyl]-6-oxo-5-oxa-2,7-diazaspiro[3.4]octan-7-yl]-4H-pyrazino[2,3-b][1,4]oxazin-3-one] | 138 nM | –
7 | Cc1nnc(C)c2c1CC(CNCCC1CN(c3ccc4c(n3)NC(=O)CO4)C(=O)O1)C2 (centres unmarked) [Example 284, 6-[5-[2-[(1,4-dimethyl-6,7-dihydro-5H-cyclopenta[d]pyridazin-6-yl)methylamino]ethyl]-2-oxo-1,3-oxazolidin-3-yl]-4H-pyrido[3,2-b][1,4]oxazin-3-one] | 1270 nM | –
8 | Cc1ncc(F)c2c1CC(CNCCc1nn(-c3cnc4c(n3)NC(=O)CO4)c(=O)o1)C2 (centres unmarked) [Example 335, 6-[5-[2-[(4-fluoro-1-methyl-6,7-dihydro-5H-cyclopenta[c]pyridin-6-yl)methylamino]ethyl]-2-oxo-1,3,4-oxadiazol-3-yl]-4H-pyrazino[2,3-b][1,4]oxazin-3-one] | 225 nM | –
9 | CS(=O)(=O)NCCOc1cc(C#N)c2c(c1)CC(CNCCC1CN(c3ccc4c(n3)NC(=O)CO4)C(=O)O1)C2 (centres unmarked) [Example 115, N-[2-[[7-cyano-2-[[2-[2-oxo-3-(3-oxo-4H-pyrido[3,2-b][1,4]oxazin-6-yl)-1,3-oxazolidin-5-yl]ethylamino]methyl]-2,3-dihydro-1H-inden-5-yl]oxy]ethyl]methanesulfonamide] | 261 nM | –
10 | NC1c2ccnc(Cl)c2CC1CNCCC1CN(c2ccc3c(n2)NC(=O)CO3)C(=O)O1 (stereo not drawn) [Example 123, 6-[2-oxo-5-[2-[[5,6-trans-5-amino-1-chloro-6,7-dihydro-5H-cyclopenta[c]pyridin-6-yl]methylamino]ethyl]-1,3-oxazolidin-3-yl]-4H-pyrido[3,2-b][1,4]oxazin-3-one; formic acid] | 248 nM | –
11 | Cc1nc(C)c2c(c1F)CC(CNCCC1CN(c3cnc4c(n3)NC(=O)CO4)C(=O)O1)C2 (centres unmarked) [Example 352, 6-[5-[2-[(4-fluoro-1,3-dimethyl-6,7-dihydro-5H-cyclopenta[c]pyridin-6-yl)methylamino]ethyl]-2-oxo-1,3-oxazolidin-3-yl]-4H-pyrazino[2,3-b][1,4]oxazin-3-one; formic acid] | < 97.7 nM | –
12 | Cc1ncc(F)c2c1CC(CNC[C@@H](O)[C@H]1CN(c3cnc4c(n3)NC(=O)CO4)C(=O)O1)C2 (stereo partly drawn) [Example 360, 6-[(5R)-5-[(1R)-2-[(4-Fluoro-1-methyl-6,7-dihydro-5H-cyclopenta[c]pyridin-6-yl)methylamino]-1-hydroxyethyl]-2-oxo-1,3-oxazolidin-3-yl]-4H-pyrazino[2,3-b][1,4]oxazin-3-one; formic acid] | 319 nM | –
13 | Cc1cc(OCC2(N)CC2)c(C)c2c1CC(CNCCC1CN(c3cnc4c(n3)NC(=O)CO4)C(=O)O1)C2 (centres unmarked) [Example 253, 6-[5-[2-[[5-[(1-Aminocyclopropyl)methoxy]-4,7-dimethyl-2,3-dihydro-1H-inden-2-yl]methylamino]ethyl]-2-oxo-1,3-oxazolidin-3-yl]-4H-pyrazino[2,3-b][1,4]oxazin-3-one; formic acid] | < 97.7 nM | –
14 | CC(C)(N)COc1cc(C#N)c2c(c1)CC(CNCCC1CN(c3cnc4c(n3)NC(=O)CO4)C(=O)O1)C2 (centres unmarked) [Example 204, 6-(2-amino-2-methylpropoxy)-2-(((2-(2-oxo-3-(3-oxo-3,4-dihydro-2H-pyrazino[2,3-b][1,4]oxazin-6-yl)oxazolidin-5-yl)ethyl)amino)methyl)-2,3-dihydro-1H-indene-4-carbonitrile] | < 97.7 nM | –
15 | N#Cc1cccc2c1CC(CN[C@H]1CC[C@H](C3CN(c4ccc5c(n4)NC(=O)CO5)C(=O)O3)CC1)C2 (stereo partly drawn) [Example 100, 2-[[[trans-4-[2-oxo-3-(3-oxo-4H-pyrido[3,2-b][1,4]oxazin-6-yl)-1,3-oxazolidin-5-yl]cyclohexyl]amino]methyl]-2,3-dihydro-1H-indene-4-carbonitrile; formic acid] | 1260 nM | –
16 | CC(N)COc1ccc2c(c1C#N)CC(CNCCC1CN(c3ccc4c(n3)NC(=O)CO4)C(=O)O1)C2 (centres unmarked) [Example 134, 5-(2-aminopropoxy)-2-[[2-[2-oxo-3-(3-oxo-4H-pyrido[3,2-b][1,4]oxazin-6-yl)-1,3-oxazolidin-5-yl]ethylamino]methyl]-2,3-dihydro-1H-indene-4-carbonitrile; formic acid] | 114 nM | –
17 | N#Cc1cccc2c1CC(CNCCC1CN(c3ccc4c(n3)NC(=O)CO4)C(=O)O1)C2 (centres unmarked) [Example 5, 2-[[2-[2-oxo-3-(3-oxo-4H-pyrido[3,2-b][1,4]oxazin-6-yl)-1,3-oxazolidin-5-yl]ethylamino]methyl]-2,3-dihydro-1H-indene-4-carbonitrile] | < 97.7 nM | –
18 | CNC(=O)COc1ccc2c(c1Cl)CC(CNCCC1CN(c3ccc4c(n3)NC(=O)CO4)C(=O)O1)C2 (centres unmarked) [Example 108, 2-[[4-chloro-2-[[2-[2-oxo-3-(3-oxo-4H-pyrido[3,2-b][1,4]oxazin-6-yl)-1,3-oxazolidin-5-yl]ethylamino]methyl]-2,3-dihydro-1H-inden-5-yl]oxy]-N-methylacetamide] | < 97.7 nM | –
19 | Cc1nc(OCC2(N)CC2)c(C#N)c2c1CC(CN1CCC3(CC1)CN(c1ccc4c(n1)NC(=O)CO4)C(=O)O3)C2 (centres unmarked) [Example 215, 3-[(1-aminocyclopropyl)methoxy]-1-methyl-6-[[2-oxo-3-(3-oxo-4H-pyrido[3,2-b][1,4]oxazin-6-yl)-1-oxa-3,8-diazaspiro[4.5]decan-8-yl]methyl]-6,7-dihydro-5H-cyclopenta[c]pyridine-4-carbonitrile] | < 97.7 nM | –
20 | O=C1COc2ccc(N3CC(CNC4Cc5ccc(Cl)cc5C4)OC3=O)nc2N1 (centres unmarked) [Example 25, 6-[5-[[(5-chloro-2,3-dihydro-1H-inden-2-yl)amino]methyl]-2-oxo-1,3-oxazolidin-3-yl]-4H-pyrido[3,2-b] [1,4]oxazin-3-one] | 4070 nM | –
21 | Cc1ncc(F)c2c1CC(NC(C)CCC1CN(c3cnc4c(n3)NC(=O)CO4)C(=O)O1)C2 (single isomer, unassigned; isomer b) [Example 334, 6-[5-[3-[(4-fluoro-1-methyl-6,7-dihydro-5H-cyclopenta[c]pyridin-6-yl)amino]butyl]-2-oxo-1,3-oxazolidin-3-yl-4H-pyrazino[2,3-b][1,4]oxazin-3-one, Isomer B] | – | 321 nM
22 | CC(C)(N)COc1cc(F)c2c(c1F)CC(CNCCC1CN(c3cnc4c(n3)NC(=O)CO4)C(=O)O1)C2 (centres unmarked) [Example 411, 6-[5-[2-[[5-(2-amino-2-methylpropoxy)-4,7-difluoro-2,3-dihydro-1H-inden-2-yl]methylamino]ethyl]-2-oxo-1,3-oxazolidin-3-yl]-4H-pyrazino[2,3-b][1,4]oxazin-3-one; formic acid] | < 97.7 nM | –
23 | NCCOc1cc(Cl)c2c(c1)CC(NCCCC1CN(c3ccc4c(n3)NC(=O)CO4)C(=O)O1)C2 (centres unmarked) [Example 179, 6-[5-[3-[[6-(2-aminoethoxy)-4-chloro-2,3-dihydro-1H-inden-2-yl]amino]propyl]-2-oxo-1,3-oxazolidin-3-yl]-4H-pyrido[3,2-b][1,4]oxazin-3-one] | 103 nM | –
24 | O=C1COc2ncc(N3CC(CCNCC4Cc5ccnc(Cl)c5C4)OC3=O)nc2N1 (centres unmarked) [Example 38, 6-[5-[2-[(1-chloro-6,7-dihydro-5H-cyclopenta[c]pyridin-6-yl)methylamino]ethyl]-2-oxo-1,3-oxazolidin-3-yl]-4H-pyrazino[2,3-b][1,4]oxazin-3-one] | < 97.7 nM | –
25 | N#Cc1cccc2c1CC(NC1CCC3(CN(c4ccc5c(n4)NC(=O)CO5)C(=O)O3)C(N)C1)C2 (racemic) [Example 241, 2-[[rac-5,6-trans-5,8-cis-6-Amino-2-oxo-3-(3-oxo-4H-pyrido[3,2-b][1,4]oxazin-6-yl)-1-oxa-3-azaspiro[4.5]decan-8-yl]amino]-2,3-dihydro-1H-indene-4-carbonitrile; formic acid] | – | 509 nM
26 | O=C1COc2ccc(N3C[C@@H](NC4CC(NC5Cc6cccc(F)c6C5)C4)CC3=O)nc2N1 (stereo partly drawn) [Example 24, 6-[(4S)-4-[[3-[(4-fluoro-2,3-dihydro-1H-inden-2-yl)amino]cyclobutyl]amino]-2-oxopyrrolidin-1-yl]-4H-pyrido[3,2-b][1,4]oxazin-3-one] | 1810 nM | –
